Assay [1] deals with Cellular Release of Amyloid Peptide 1-40. In words: Test 4: Inhibition of Cellular Release of Amyloid Peptide 1-40. It is filed as cell-based, Chinese hamster. To be noted: Cricetulus griseus, 24 h; read-out: Amyloid-β1-40 release IC50. The procedure:
Chinese hamster ovary cells are transfected with the human gene for amyloid precursor protein. The cells are plated at a density of 8000 cells/well into 96-well microtiter plates and cultivated for 24 hours in DMEM cell culture medium containing 10% FCS. The test compound is added to the cells at various concentrations, and the cells are cultivated for 24 hours in the presence of the test compound. […] The potency of the compound is calculated from the percentage of inhibition of amyloid peptide release as a function of the test compound concentration.

Another assay has as its target Human BACE-1 (Homo sapiens, UniProt P56817). The experiment in a line: Test 1: Inhibition of Human BACE-1. It is filed as biochemical. To be noted: mean IC50 values in Test 1; recombinant BACE-1, pH 4.5. As to the method:
Test 1: Inhibition of Human BACE-1
IC50 values are calculated from percentage of inhibition of BACE-1 activity as a function of the test compound concentration.

Structures can show the parent of a compound that is named as a salt.

Chain of Human BACE-1 (P56817 46-457 limits assumed): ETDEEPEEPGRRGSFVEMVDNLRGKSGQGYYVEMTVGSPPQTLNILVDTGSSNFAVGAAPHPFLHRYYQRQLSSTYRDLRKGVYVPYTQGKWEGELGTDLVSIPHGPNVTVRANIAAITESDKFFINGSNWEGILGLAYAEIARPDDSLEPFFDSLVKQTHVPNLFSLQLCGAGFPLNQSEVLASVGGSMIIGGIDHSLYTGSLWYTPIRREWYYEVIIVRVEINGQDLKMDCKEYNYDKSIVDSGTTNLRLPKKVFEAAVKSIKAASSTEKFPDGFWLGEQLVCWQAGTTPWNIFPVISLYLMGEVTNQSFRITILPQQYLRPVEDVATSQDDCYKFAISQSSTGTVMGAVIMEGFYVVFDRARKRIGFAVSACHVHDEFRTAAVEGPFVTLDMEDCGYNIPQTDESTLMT

For `Cc1nc(C(=O)Nc2ccc(F)c([C@]3(C)CO[C@@](C)(C(F)(F)F)C(N)=N3)c2)c(C)o1` [Example 23, 2,5-Dimethyl-oxazole-4-carboxylic acid [3-((3R,6R)-5-amino-3,6-dimethyl-6-trifluoromethyl-3,6-dihydro-2H-[1,4]oxazin-3-yl)-4-fluoro-phenyl]-amide hydrochloride], the figures for the IC50 (in assay [1]; on Human BACE-1) were 160 nM and 67 nM, respectively.

`Cc1cc(OC(F)F)cnc1C(=O)Nc1ccc(F)c([C@]2(C)CO[C@@](C)(C(F)(F)F)C(N)=N2)c1` [Example 24, 5-Difluoromethoxy-3-methyl-pyridine-2-carboxylic acid [3-((3R,6R)-5-amino-3(6-dimethyl-6-trifluoromethyl-3,6-dihydro-2H-[1,4]oxazin-3-yl)-4-fluoro-phenyl]-amide hydrochloride]: the IC50 was determined as 6 nM in assay [1] and 14 nM at Human BACE-1.

For `C#CCOc1cnc(C(=O)Nc2ccc(F)c([C@]3(C)CO[C@@](C)(C(F)(F)F)C(N)=N3)c2)c(N)n1` [Example 25, 3-Amino-5-prop-2-ynyloxy-pyrazine-2-carboxylic acid [3-((3R,6R)-5-amino-3,6-dimethyl-6-trifluoromethyl-3,6-dihydro-2H-[1,4]oxazin-3-yl)-4-fluoro-phenyl]-amide], the 50% inhibitory concentration (IC50) (in assay [1]; on Human BACE-1) was 1 nM throughout.

As to `Cc1cc(C(F)F)cnc1C(=O)Nc1ccc(F)c([C@]2(C)CO[C@@](C)(C(F)(F)F)C(N)=N2)c1` [Example 27, 5-Difluoromethyl-3-methyl-pyridine-2-carboxylic acid [3-((3R,6R)-5-amino-3,6-dimethyl-6-trifluoromethyl-3,6-dihydro-2H-[1,4]oxazin-3-yl)-4-fluoro-phenyl]-amide hydrochloride], the values for the IC50 (in assay [1]; on Human BACE-1) were 10 nM and 16 nM, respectively.

With `C[C@@]1(c2cc(NC(=O)c3ncc(C(F)F)nc3N)ccc2F)CO[C@@](C)(C(F)(F)F)C(N)=N1` [Example 28, 3-Amino-5-difLuoromethyl-pyrazine-2-carboxylic acid [3-((3R,6R)-5-amino-3,6-dimethyl-6-trifluoromethyl-3,6-dihydro-2H-[1,4]oxazin-3-yl)-4-fluoro-phenyl]-amide], the IC50 came out at 8 nM in assay [1] and 10 nM at Human BACE-1.

On to `C[C@@]1(c2cc(NC(=O)c3ncc(C(F)F)cc3N)ccc2F)CO[C@@](C)(C(F)(F)F)C(N)=N1` [Example 29, 3-Amino-5-difluoromethyl-pyridine-2-carboxylic acid [3-((3R,6R)-5-amino-3,6-dimethyl-6-trifluoromethyl-3,6-dihydro-2H-[1,4]oxazin-3-yl)-4-fluoro-phenyl]-amide], for which the IC50 stood at 10 nM in assay [1] and 14 nM at Human BACE-1.

Regarding `COc1cc(C(F)F)c(C(=O)Nc2ccc(F)c([C@]3(C)CO[C@@](C)(C(F)(F)F)C(N)=N3)c2)nn1` [Example 30, 4-Difluoromethyl-6-methoxy-pyridazine-3-carboxylic acid [3-((3R,6R)-5-amino-3,6-dimethyl-6-trifluoromethyl-3,6-dihydro-2H-[1,4]oxazin-3-yl)-4-fluoro-phenyl]-amide hydrochloride], the IC50 in assay [1] was 62 nM; at Human BACE-1, 150 nM.

With `[2H]C([2H])([2H])OCc1cc(C#N)cnc1C(=O)Nc1ccc(F)c([C@]2(C)CO[C@@](C)(C(F)(F)F)C(N)=N2)c1` [Example 31, 5-Cyano-3-trideuteromethoxymethyl-pyridine-2-carboxylic acid [3-((3R,6R)-5-amino-3,6-dimethyl-6-trifluoromethyl-3,6-dihydro-2H-[1,4]oxazin-3-yl)-4-fluoro-phenyl]-amide], the values for the IC50 (in assay [1]; on Human BACE-1) were 9 nM and 11 nM, respectively.

On to `C[C@@]1(c2cc(NC(=O)c3ncc(C(F)F)cc3Cl)ccc2F)CO[C@@](C)(C(F)(F)F)C(N)=N1` [Example 32, 3-Chloro-5-difluormethyl-pyridine-2-carboxylic acid [3-((3R,6R)-5-amino-3,6-dimethyl-6-trifluoromethyl-3,6-dihydro-2H-[1,4]oxazin-3-yl)-4-fluoro-phenyl]-amide], for which the figures for the IC50 (in assay [1]; on Human BACE-1) were 11 nM and 20 nM, respectively.

`[2H]C([2H])([2H])OC([2H])([2H])c1cc2c(Cl)c[nH]c2nc1C(=O)Nc1ccc(F)c([C@]2(C)CO[C@@](C)(C(F)(F)F)C(N)=N2)c1` [Example 33, 3-Chloro-5-trideuteromethoxy-dideuteromethyl-1H-pyrrolo[2,3-b]pyridine-6-carboxylic acid [3-((3R,6R)-5-amino-3,6-dimethyl-6-trifluoromethyl-3,6-dihydro-2H-[1,4]oxazin-3-yl)-4-fluoro-phenyl]-amide]: the IC50 in assay [1] was determined as 41 nM; at Human BACE-1 it was 13 nM.

Turning to `C[C@@]1(c2cc(NC(=O)c3ncc(C(F)(F)F)cc3Cl)ccc2F)CO[C@@](C)(C(F)(F)F)C(N)=N1` [Example 34, 3-Chloro-5-trifluoromethyl-pyridine-2-carboxylic acid [3-((3R,6R)-5-amino-3,6-dimethyl-6-trifluoromethyl-3,6-dihydro-2H-[1,4]oxazin-3-yl)-4-fluoro-phenyl]-amide], the IC50 in assay [1] came to 10 nM; on Human BACE-1, 16 nM.

As for `[2H]C([2H])([2H])Oc1cnc(C(=O)Nc2ccc(F)c([C@]3(C)CO[C@@](C)(C(F)(F)F)C(N)=N3)c2)c(C)c1` [Example 36, 5-Trideuteromethoxy-3-methyl-pyridine-2-carboxylic acid [3-((3R,6R)-5-amino-3,6-dimethyl-6-trifluoromethyl-3,6-dihydro-2H-[1,4]oxazin-3-yl)-4-fluoro-phenyl]-amide], the IC50 in assay [1] came out at 18 nM; at Human BACE-1 it was 28 nM.

For the compound `Cc1cc(OC(F)F)cnc1C(=O)Nc1ccc(F)c(C2(C)COC(CF)(CF)C(N)=N2)c1` (centres unmarked) [Example 39, 5-Difluoromethoxy-3-methyl-pyridine-2-carboxylic acid [3-(5-amino-6,6-bis-fluoromethyl-3-methyl-3,6-dihydro-2H-[1,4]oxazin-3-yl)-4-fluoro-phenyl]-amide], the IC50 in assay [1] amounted to 22 nM; on Human BACE-1 it was 300 nM.

`Cc1cc(OC(F)F)cnc1C(=O)Nc1ccc(F)c([C@]2(C)COC(CF)(CF)C(N)=N2)c1` [Example 40, 5-Difluoromethoxy-3-methyl-pyridine-2-carboxylic acid [3-((R)-5-amino-6,6-bis-fluoromethyl-3-methyl-3,6-dihydro-2H-[1,4]oxazin-3-yl)-4-fluoro-phenyl]-amide]: the figures for the IC50 (in assay [1]; at Human BACE-1) were 4 nM and 29 nM, respectively.

For the compound `Cc1cc(Cl)cnc1C(=O)Nc1ccc(F)c(C2(C)COC(CF)(CF)C(N)=N2)c1` (centres unmarked) [Example 41, 5-Chloro-3-methyl-pyridine-2-carboxylic acid [3-(5-amino-6,6-bis-fluoromethyl-3-methyl-3,6-dihydro-2H-[1,4]oxazin-3-yl)-4-fluoro-phenyl]-amide], the values for the IC50 (in assay [1]; on Human BACE-1) were 13 nM and 48 nM, respectively.

For the compound `Cc1cc(C#N)cnc1C(=O)Nc1ccc(F)c([C@]2(CF)COC(CF)(CF)C(N)=N2)c1` [Example 42, 5-Cyano-3-methyl-pyridine-2-carboxylic acid [3-((R)-5-amino-3,6,6-tris-fluoromethyl-3,6-dihydro-2H-[1,4]oxazin-3-yl)-4-fluoro-phenyl]-amide], the IC50 in assay [1] is 13 nM; on Human BACE-1 it was 12 nM.
